Reference: patent US9962398B2, “Sulfonamide compounds for inhibition of metastatic tumor growth” (Welichem Biotech Inc., priority 2010, dated 2018)
Where two headings read alike, the source gives them in different places.

How the values were obtained:
[1] = test system: 67NR-derived tumors; details: mouse, in vivo
Description: For in vivo studies, the MST-017 inhibitor was administered by i.p. injection (first two doses were administered i.v.) at 75 mg/kg and 150 mg/kg 3× per week for 2 weeks. […] The compounds were solubilized in PEG400/ethanol/saline prior to injection. Vehicle components were held constant as inhibitor concentrations were varied.
(§4) Primary tumor growth rates were calculated from caliper measurements using the modified ellipsoid formula (L×W^2)/2.

[2] = test system: 4T1 primary tumors; details: mouse, in vivo
Description: For in vitro studies, the compounds were dissolved in DMSO, stored at −80° C. and diluted into culture medium just prior to application. […] For in vivo studies, the MST-017 inhibitor was administered by i.p. injection (first two doses were administered i.v.) at 75 mg/kg and 150 mg/kg 3× per week for 2 weeks. […] The compounds were solubilized in PEG400/ethanol/saline prior to injection. Vehicle components were held constant as inhibitor concentrations were varied.
as §4
Animals were inoculated orthotopically with 4T1 cells. Tumors were allowed to establish for 14 days. Mice were injected with the indicated doses of MST-017 3× per week for 2 weeks. Left panel, tumor growth was monitored by caliper-based measurement. […] Vehicle-treated and untreated animals served as controls. *P<0.02, **P<0.01 using a 2-sided Student's t-test, compared to vehicle controls.
The weights of treated animals were monitored as a measure of general inhibitor toxicity. Mice were weighed just prior to each dose of the CAIX inhibitor.

[3] = test system: 66cl4 cells; experiment: Measurement of extracellular pH in hypoxia, 66cl4 cells; format: cell-based, mouse; details: 72 h, 600 uM MST-017
Description: (§1) Changes in solution pH were assessed using procedures published previously (29, 42, 43). In brief, cells were plated at appropriate density (1×10^4 cells/cm2 for 4T1 cells and its transfected derivatives, 2×10^4 cells/cm2 for 66cl4 cells, 1×10^4 cells/cm2 for 67NR cells and its transfected derivatives) in 60 mm dishes and allowed to recover overnight. A standard volume of 3 ml of fresh media/dish was then added and cells were incubated in normoxia (air+5% CO2) or hypoxia (1% O2 and 5% CO2 balanced with nitrogen) for 72 h. Care was taken to ensure that cultures grown in normoxia and hypoxia were at similar confluence and contained similar cell numbers at the time of medium collection. Collected spent media was maintained at 37° C. and pH was measured immediately using a digital pH meter. […] Cells were harvested on ice for qRT-PCR and Western blot analysis.
(§2) Ureido sulfonamides are new.
(§3) Shown in FIG. 9 are representative images of the FITC-tagged inhibitor bound to the cell lines in the indicated conditions. […] For each cell line, changes in the extracellular pH in hypoxia were assessed relative to the baseline extracellular pH measured in parallel cultures grown in normoxia. *P<0.001 with a two-sided Student's t-test, compared to cells cultured without inhibitor.

[4] = test system: 4T1 cells; experiment: Measurement of extracellular pH in hypoxia, 4T1 cells; format: cell-based, mouse; details: 72 h, 400 uM MST-017
Description: as §1, §2
as §3, with “Cells were cultured for 72 h in the presence of 10 μM MST-017. Shown” for “Shown”

[5] = biological target: hCA IX (Homo sapiens (Human), UniProt Q16790)
[6] = biological target: hCA XII (Homo sapiens (Human), UniProt O43570); details: read-out: KI (nM) Activity hCAXII; Table 1
[7] = test system: MDA-231 LM2-4 Luc+ cells; experiment: 3D Matrigel invasion assay in hypoxia; format: cell-based, human; details: 4 days in hypoxia
Description: A 3D “on-top” matrigel culture assay was performed as described previously (Lee et al, (2007) Nat Methods 4:359-365). […] Cells were allowed to attach for 45 minutes with side-to-side agitation every 10-15 minutes to prevent clumping of cells in the center of the well. An additional 100 μl/well media containing 10% matrigel was added to the cells and cultures were incubated in hypoxia for 4 days. Images were acquired and cultures were fixed for TUNEL using the “whole culture fixation” methodology outlined in Lee et al, (2007) Nat Methods 4:359-365).
Treatment with novel sulfonamide inhibitors of CAIX attenuates hypoxia-induced invasion of human breast cancer cells grown in 3D Matrigel™ cultures (FIG. 16). Cells were cultured in 3D “on-top” Matrigel™ assays for 4 days in hypoxia in the presence of inhibitors. DMSO-treated cell cultures served as controls. The percentage concentration of DMSO and molar concentration of inhibitors are indicated. Representative phase contrast images are shown.

[8] = biological target: hCA I (Homo sapiens (Human), UniProt P00915); details: read-out: KI (nM) Activity hCAI; Table 1
[9] = test system: 4T1 mammary tumor cells; experiment: Experimental metastasis assay, intravenous 4T1 cells, bioluminescence; format: in vivo, mouse; details: i.v. 4T1 cells, three i.p. doses over 6 days, imaged 24 h after third dose
Description: For studies involving genetic depletion of CAIX, 4T1 or 67NR cells (5×10^5) were injected directly into the tail vein of 7-9 week-old female BALB/c mice. Mice were imaged once per week to follow the growth of metastases. Mice were euthanized 20 days post-injection and lungs were resected for further analysis. Tumor burden in the lung was quantified by manually counting nodules visible on the lung surface. For studies using sulphonamide inhibitors, 4T1 cells (1-5×10^5) were injected as described above (Pacchiano et al, (2011) J Med Chem 54:1896-1902).
Animals were treated 24 hours post inoculation of cells. Three doses were administered by i.p. injection over 6 days and the mice were imaged 24 hours following the third dose of inhibitor. […] Quantification of tumor-derived bioluminescence is shown in 12C. Regions of interest were positioned around metastatic foci and total flux (photons/sec) at the mouse surface was calculated. Data are reported as the mean±s.e.m. N=4 per group. *P<0.05.
4T1 cells were injected directly into the tail vein of BALB/c mice. […] Vehicle and inhibitor were administered by i.p. injection. Shown are representative images of tumor-cell derived bioluminescence in control and inhibitor-treated animals.

[10] = read-out: KI (nM) Activity hCAIX, Table 1
[11] = read-out: Ki (nM) hCA IX, Table 2
[12] = read-out: Ki (nM) hCA IX, Table 3

Chain of hCA I (P00915 whole entry): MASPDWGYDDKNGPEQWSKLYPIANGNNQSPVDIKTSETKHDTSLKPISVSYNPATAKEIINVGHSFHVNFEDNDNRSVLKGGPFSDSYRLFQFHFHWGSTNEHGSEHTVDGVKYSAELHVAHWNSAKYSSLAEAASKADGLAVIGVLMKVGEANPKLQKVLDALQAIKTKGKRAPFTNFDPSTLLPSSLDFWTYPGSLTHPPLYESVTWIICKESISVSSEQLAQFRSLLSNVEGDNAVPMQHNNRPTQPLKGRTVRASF
Chain of hCA XII (O43570 25-354): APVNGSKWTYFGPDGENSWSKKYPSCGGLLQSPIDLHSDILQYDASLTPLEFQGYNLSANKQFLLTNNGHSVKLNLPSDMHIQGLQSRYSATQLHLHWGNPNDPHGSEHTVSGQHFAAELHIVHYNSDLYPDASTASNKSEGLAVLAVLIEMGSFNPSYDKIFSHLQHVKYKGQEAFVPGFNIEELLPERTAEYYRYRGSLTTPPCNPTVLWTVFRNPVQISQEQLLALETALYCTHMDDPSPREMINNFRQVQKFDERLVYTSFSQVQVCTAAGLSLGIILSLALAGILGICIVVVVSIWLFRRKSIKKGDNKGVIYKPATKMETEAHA

Structure (SMILES) | Ki [5, 10] [nM] | Ki [6] [nM] | other results
NS(=O)(=O)c1ccc(CCNC(=S)Nc2ccc(-c3c4ccc(=O)cc-4oc4cc(O)ccc34)c(C(=O)O)c2)cc1 [MST-017] | – | – | tumor growth [1]: no significant effect; weights of treated animals [1]: no significant weight reduction; tumor growth [2]: significant inhibition of tumor growth; weights of treated animals [2]: no significant weight reduction; change in extracellular pH [3]: reversed acidification of the extracellular medium; change in extracellular pH [4]: reversed acidification of the extracellular medium
NS(=O)(=O)c1ccc(NC(=O)Nc2ccc(Br)cc2)cc1 [MST-105, 4-({[(4′-Bromophenyl)amino]carbonyl}amino)benzenesulfonamide] | 69.3 | 7.9 | –
NS(=O)(=O)c1ccc(NC(=O)Nc2ccc(I)cc2)cc1 [MST-106, 4-{[(4′-Iodophenyl)carbamoyl]amino}benzenesulfonamide] | 24.5 | 4.3 | –
NS(=O)(=O)c1ccc(NC(=O)Nc2c(F)c(F)c(F)c(F)c2F)cc1 [MST-107, 4-{[(Pentafluorophenyl)carbamoyl]amino}benzenesulfonamide] | 5.4 | 5.1 | hypoxia-induced invasion [7]: inhibit invasion
COc1ccccc1NC(=O)Nc1ccc(S(N)(=O)=O)cc1 [MST-108] | 465 | 61.2 | Ki [8]: 92 nM
CC(=O)c1ccc(NC(=O)Nc2ccc(S(N)(=O)=O)cc2)cc1 [MST-109, 4-{([(4′-Acetylphenyl)amino]carbonyl)amino}benzenesulfonamide] | – | 4.6 | –
CC(C)c1ccccc1NC(=O)Nc1ccc(S(N)(=O)=O)cc1 [MST-110, 4-{([(2′-Isopropylphenyl)amino]carbonyl)amino}benzenesulfonamide] | 0.5 | 4.2 | –
CC(C)c1ccc(NC(=O)Nc2ccc(S(N)(=O)=O)cc2)cc1 [MST-111, 4-{([(4′-Isopropylphenyl)amino]carbonyl)amino}benzenesulfonamide] | 541 | 49.7 | –
CCCCc1ccc(NC(=O)Nc2ccc(S(N)(=O)=O)cc2)cc1 [MST-112, 4-({[(4′-Butylphenyl)amino]carbonyl}amino)benzenesulfonamide] | 376 | 28.5 | –
CCCCOc1ccc(NC(=O)Nc2ccc(S(N)(=O)=O)cc2)cc1 [MST-113, 4-{[(4′-Butoxyphenyl)carbamoyl]amino}benzenesulfonamide] | 0.8 | 2.5 | –
N#Cc1ccc(NC(=O)Nc2ccc(S(N)(=O)=O)cc2)cc1 [MST-115, 4-{[(4′-Cyanophenyl)carbamoyl]amino}benzenesulfonamide] | 6 | 6.5 | Ki [8]: 57 nM
N#Cc1ccccc1NC(=O)Nc1ccc(S(N)(=O)=O)cc1 [MST-116, 4-{([(2′-Cyanophenyl)amino]carbonyl)amino}benzenesulfonamide] | 0.3 | 4.6 | Ki [8]: 10.9 nM
NS(=O)(=O)c1ccc(NC(=O)Nc2ccc(Oc3ccccc3)cc2)cc1 [MST-117, 4-({[(4′-Phenoxyphenyl)amino]carbonyl}amino)benzenesulfonamide] | 69.1 | 7.1 | Ki [8]: 604 nM
NS(=O)(=O)c1ccc(NC(=O)Nc2cccc([N+](=O)[O-])c2)cc1 [MST-119, 4-{[(3′-Nitrophenyl)carbamoyl]amino}benzenesulfonamide] | 0.9 | – | hypoxia-induced invasion [7]: inhibit invasion; formation of metastases (tumor-derived bioluminescence) [9]: reduces the formation of metastases
COc1ccc(NC(=O)Nc2ccc(S(N)(=O)=O)cc2)c(C)c1 [MST-120, 4-{([(4′-Methoxy-2′-methylphenyl)amino]carbonyl)amino}benzenesulfonamide] | – | 6 | –
NS(=O)(=O)c1ccc(NC(=O)NC2CCCC2)cc1 [MST-122, 4-[(Cyclopentylcarbamoyl)amino]benzenesulfonamide] | 7.3 | 7 | –
NS(=O)(=O)c1ccc(NC(=O)Nc2ccc(Cl)cc2)cc1 [MST-124, 4-{([(4′-chlorophenyl)amino]carbonylamino)}benzenesulfonamide] | – | 5.3 | –
NS(=O)(=O)c1cccc(NC(=O)Nc2ccc(I)cc2)c1 [MST-128, 3-(3-(4′-Iodophenyl)ureido)benzenesulfonamide] | – | – | Ki [5, 11]: 13.1 nM
NS(=O)(=O)c1cccc(NC(=O)Nc2ccc(F)cc2)c1 [MST-129, 3-(3-(4′-Fluorophenyl)ureido)benzenesulfonamide] | – | – | Ki [5, 11]: 10.2 nM
NS(=O)(=O)c1cccc(NC(=O)Nc2cccc([N+](=O)[O-])c2)c1 [MST-130, 3-(3-(3′-Nitrophenyl)ureido)benzenesulfonamide] | – | – | hypoxia-induced invasion [7]: inhibit invasion; Ki [5, 11]: 7.9 nM
CC(=O)c1ccc(NC(=O)Nc2cccc(S(N)(=O)=O)c2)cc1 [MST-131, 3-(3-(4′-Acetylphenyl)ureido)benzenesulfonamide] | – | – | Ki [5, 11]: 15.1 nM
CC(C)c1ccccc1NC(=O)Nc1cccc(S(N)(=O)=O)c1 [MST-132, 3-(3-(2′-Isopropylphenyl)ureido)benzenesulfonamide] | – | – | Ki [5, 11]: 18.5 nM
NS(=O)(=O)c1ccc(NC(=O)Nc2ccc(Cl)cc2F)cc1 [MST-134, 4-(3-(4′-chloro-2-fluorophenyl)ureido)benzenesulfonamide] | – | – | Ki [5, 12]: 5.1 nM
NS(=O)(=O)c1ccc(NC(=O)Nc2cc(F)c(F)cc2F)cc1 [MST-137, 4-(3-(2′,4′,5′-trifluorophenyl)ureido)benzenesulfonamide] | – | – | Ki [5, 12]: 7.6 nM
NS(=O)(=O)c1ccc(NC(=O)Nc2cc(C(F)(F)F)ccc2F)cc1 [MST-138, 4-(3-(2′-fluoro-5′-(trifluoromethyl)phenyl)ureido)benzenesulfonamide] | – | – | Ki [5, 12]: 7.4 nM
NS(=O)(=O)c1ccc(NC(=O)Nc2ccc(F)c(F)c2F)cc1 [MST-140, 4-(3-(2′,3′,4′-trifluorophenyl)ureido)benzenesulfonamide] | – | – | Ki [5, 12]: 9.6 nM
NS(=O)(=O)c1ccc(NC(=O)Nc2ccccc2F)cc1 [MST-141, 4-(3-(2′-fluorophenyl)ureido)benzenesulfonamide] | – | – | Ki [5, 12]: 7.7 nM
NS(=O)(=O)c1ccc(NC(=O)Nc2ccc(F)cc2F)cc1 [MST-142, 4-(3-(2′,4′-difluorophenyl)ureido)benzenesulfonamide] | – | – | Ki [5, 12]: 3.7 nM
NS(=O)(=O)c1ccc(NC(=O)Nc2cc(Cl)ccc2Cl)cc1 [MST-144, 4-(3-(2′,5′-dichlorophenyl)ureido)benzenesulfonamide] | – | – | Ki [5, 12]: 8.9 nM
NS(=O)(=O)c1ccc(NC(=O)Nc2cc([N+](=O)[O-])ccc2Cl)cc1 [MST-145, 4-(3-(2′-Chloro-5-nitrophenyl)ureido)benzenesulfonamide] | – | – | Ki [5, 12]: 8.2 nM
